Experiment [1] has as its system human mitochondrial F1/F0 ATPase (Complex V). Nature of the experiment: ATPase activity of immunocaptured F1/F0 ATPase, 96-well. In kind it is biochemical. On the procedure: Solubilization. Samples were thawed and placed in 25 mM HEPES pH 7.5 (to dissociate F1F0/IF1 interactions) or 10 mM […] (Anatrace) pH 6.5 (to retain F1F0/IF1 interactions), containing 0.4% (w/v) […], and the protease inhibitors leupeptin (0.5 μg/ml), pepstatin (0.5 μg/ml) and PMSF (1 mM). Mitochondria were solubilized at 5 mg/ml and whole cells were solubilized at 2×10^7 cells/ml. Samples were mixed well and then kept on ice for 30 minutes with occasional agitation. Insoluble material was then removed by centrifugation at 16,000×g for 20 minutes at 4° C.
Immunocapture. Assays were run in 96-well plates (Falcon Probind™) using 100 μl/well. […] To control for non-specific adsorption of ATPase, a non-specific mouse monoclonal antibody was used as a null capture mAb. Wells were then loaded with solubilized test samples diluted in TBS with 2.5% BSA, incubated for 2 hours at room temperature and then washed 4 times with TBS.
ATPase activity. ATPase reaction buffer (25 mM HEPES pH 7.5 or 10 mM MOPS pH 6.5, with 25 mM KCl, 5 mM MgCl2, 5 mM KCN and 2 mM ATP) was added at 100 μl/well and incubated for 3 hours at 37° C. The reaction was stopped and free Pi generated by ATP hydrolysis was detected essentially as described by Walker et al. (Meth. Enzymol., 260: 163-190, 1995) by addition of 0.5% ammonium molybendate in 0.7 M H2SO4 (42 μl/well) followed by 10% ascorbic acid (4 μl/well). After incubation for 30 minutes at room temperature to allow color development, absorbance was measured at 690 nm.
IF1 Stripping Conditions. IF1 was dissociated from previously immunocaptured IF1/F1F0 complexes by exposure to IF1 stripping buffer (30 mM Tris-sulfate pH 8, 250 mM KCl, 2 mM EDTA, 75 mM sucrose) for 30 minutes at 37° C. (Van Raaij et al., Biochem. 35: 15618-15625, 1996). The wells were then washed with either a pH 7.5 wash buffer (TBS) or a pH 6.5 wash buffer (10 mM MOPS pH 6.5, 150 mM NaCl and 1 mM MgCl2), and ATPase activity measured at either pH 7.5 or pH 6.5 as described above.
IF1 Addition Conditions. Recombinant human IF1 was obtained by PCR-based amplification of the appropriate gene from a human heart CDNA library (Clontech), cloning into pET15b (Novagen), transformation of E. coli and overexpression and purification of the His-tagged protein on a Ni column by standard protocols (Novagen). Isolated protein was diluted in pH 6.5 wash buffer (as described above) containing 1 mM ATP and incubated with previously immunocaptured F1F0. The wells were then washed with pH 6.5 wash buffer and ATPase activity measured at pH 6.5 as described above.

In experiment [2] the target is T1, Complex V (Homo sapiens, UniProt P00846+P05496+P06576+P25705).
T1 construct: tissue Analytical Biological Services, Inc; host or cells: human heart ventricle mitochondria (A10, A12); MRC5, Rho0-MRC5 and GM00028 fibroblasts (A12); normal and Rho0 human fibroblast mitochondria (A19)
Nature of the experiment: Complex V activity dipstick. The settings on record: normal fibroblast Complex V (FIG. 30). In kind it is biochemical.
Description: Mitochondria (human heart, human fibroblast or bovine heart) were solubilized at 5 mg/ml mitochondrial protein, 1% wt/vol lauryl maltoside, 100 mM NaCl, 25 mM HEPES pH 7.5, and the protease inhibitors pepstatin (0.5 μg/ml), leupeptin (0.5 μg/ml) and PMSF (1 mM). The samples were incubated at 4° C. for 30 minutes and the insoluble material removed by centrifugation at 16,000×g for 20 minutes. Solubilized mitochondria were diluted to the desired concentration in 150 mM NaCl, 50 mM Tris-HCl, pH 7.5 containing 2.5% bovine serum albumin as a blocking and stabilization agent.
After the entire sample wicked up into the nitrocellulose (approximately 15 minutes), the stick was transferred to a second well containing 50 μl of wash buffer (150 mM NaCl, 50 mM Tris-HCl, pH 7.5), which was allowed to wick up the stick (approximately 15 minutes). The absorbent pad was then removed and the entire dipstick incubated in a tube containing 3 ml wash buffer for approximately 15 minutes. The washed dipstick (with the immunocaptured OXPHOS complex of interest) was then transferred to the appropriate enzyme reaction buffer to reveal enzyme activity as described below. […]

These results are taken from patent US20050153381A1, “Immunocapture of mitochondrial protein complexes” (priority 2002, published 2005).

Regarding `CC[C@H]1/C=C/C=C/C[C@@H](C)[C@H](O)[C@@](C)(O)C(=O)[C@@H](C)[C@H](O)[C@@H](C)C(=O)[C@@H](C)[C@H](O)[C@@H](C)/C=C/C(=O)O[C@@H]2[C@H](C)[C@H](CC1)O[C@]1(CC[C@H](C)[C@H](C[C@@H](C)O)O1)[C@H]2C` [oligomycin], the “oligomycin sensitivity of F1/F0 ATPase immunocaptured from Rho0 cell mitochondria” value in experiment [1] (Rho0 fibroblasts, 1.5 μg/ml oligomycin (FIG. 8)) is listed as “oligomycin insensitive”. Moreover, the “oligomycin sensitivity of immunocaptured enzyme” value in experiment [1] (cultured fibroblast extract, 1.5 μg/ml oligomycin (FIG. 7B)) is listed as “more than 90%”. Further, the “inhibition of ATPase activity of immunocaptured human F1/F0 ATPase” value in experiment [1] (human heart mitochondria, 1.5 μg/ml oligomycin (FIG. 5)) was “more than 90%”. The “inhibition of captured F1/F0 ATPase” value was “could not be inhibited” in experiment [1] (mAb 12F4AD8AF8 directly adsorbed to the plate) and “completely inhibited” in experiment [1] (mAb 12F4AD8AF8 oriented on a layer of goat-anti-mouse IgG). Moreover, the “effect on Complex V activity dipstick signal” value in experiment [2] is on record as “reduced signal”.
